Test results: patent US20240369550A1, “MACROMOLECULAR STRUCTURES AND USES THEREOF” (The Regents of the University of Michigan, priority 2015, published 2024)
Entries after “also recorded” stand apart in the source; their conditions may differ.

System: DNase I
Assay: DNase I-mediated degradation of DNA-histone structures (degradation modifier assay)
Assay type: biochemical, bovine
Details: LL-37 approx. 0.5, 5 or 50 μM; total Sytox Green fluorescence; relative to structures lacking LL-37 treated with DNase I
Description: Time-lapse microscopy and microplate photometry were utilized to measure the overall rate of degradation, and DNA-histone structures were treated with multiple concentrations of DNase I to verify the dose-dependency of this rate (FIG. 3).
1 mg/ml DNase I (MW 31 kDa) was prepared in 10 mM Tris-HCl, 10 mM CaCl2, pH 7.5 (Tris buffer). Each well containing DNA-histone structures (as previously described) was washed 3 times with 150 μl of Tris buffer, and all solutions within each well were removed. 200 μL of the DNase I solution was then added to each well, and time-lapse fluorescent images of each well were acquired.
1 mg/ml LL-37 (MW 4.49 kDa) and 2 mg/ml histones (both in PBS) were added to a solution of 20% w/w PEG/PBS such that the final concentration of histones was approximately 1 mg/ml, and the final concentration of LL-37 in each solution was approximately 0.5 μM, 5 μM, or 50 μM. […]
After complete removal of the solutions in each well, 150 μL of DNase I solution was added to each well. Time-lapse images or measurements of total fluorescence were acquired at a rate of one measurement per minute.

LL-37
overall rate of DNase I-mediated degradation of DNA-histone structures: dose-dependent decrease in the overall rate of DNase I-mediated degradation; also recorded: inhibit the rate of DNase I mediated degradation
